In patent US20050032822A1, “Dithiocarbamate derivatives and their use as antibacterial agents” (priority 2001, published 2005):
≈ marks a conversion by molar mass, not a printed value.

Key:
Format in all cases: cell-based
Conditions in all cases: Mueller-Hinton broth
[1] = tested on: multiresistent staphylococci (MRSA) strain 134/93; assay: MIC, micro broth dilution, MRSA 134/93
[2] = tested on: multiresistent staphylococci (MRSA) strain 994/93; assay: MIC, micro broth dilution, MRSA 994/93
[3] = tested on: Mycobacterium smegmatis SG 987; assay: MIC, micro broth dilution, M. smegmatis SG 987
[4] = tested on: M aureum SB66; assay: MIC, micro broth dilution, M. aureum SB66
[5] = tested on: M. vaccae IMET 1010670; assay: MIC, micro broth dilution, M. vaccae IMET 10670
[6] = tested on: M. fortuitum B; assay: MIC, micro broth dilution, M. fortuitum B

Compound | minimal inhibitory concentrations MIC, 134/93 [1] | minimal inhibitory concentrations MIC, 994/93 [2] | minimal inhibitory concentrations MIC, SG 987 [3] | minimal inhibitory concentrations MIC, SB 66 [4] | minimal inhibitory concentrations MIC, 10670 [5] | minimal inhibitory concentrations MIC, M. fort. [6]
CN(C)c1ncnc(SC(=S)N2CCCC2)c1[N+](=O)[O-] [Subst. Nr. 13, 4-dimethylamino-6-tetramethylenedithiocarbamoyl-5-nitropyrimidine] | 3.12 µg/mL (≈ 9.96 µM) | 1.56 µg/mL (≈ 4.98 µM) | 3.12 µg/mL (≈ 9.96 µM) | 3.12 µg/mL (≈ 9.96 µM) | 1.56 µg/mL (≈ 4.98 µM) | 1.56 µg/mL (≈ 4.98 µM)
COc1ncnc(SC(=S)N2CCCC2)c1[N+](=O)[O-] [Subst. Nr. 15, 4-methoxy-6-tetramethylenedithiocarbamoyl-5-nitropyrimidine] | 3.12 µg/mL (≈ 10.4 µM) | 3.12 µg/mL (≈ 10.4 µM) | 3.12 µg/mL (≈ 10.4 µM) | 1.56 µg/mL (≈ 5.19 µM) | 0.8 µg/mL (≈ 2.66 µM) | 1.56 µg/mL (≈ 5.19 µM)
CCOc1nc(C)nc(SC(=S)N(CC)CC)c1[N+](=O)[O-] [Subst. Nr. 6, 4-ethoxy-2-methyl-6-diethyldithiocarbamoyl-5-nitropyrimidine] | 3.12 µg/mL (≈ 9.44 µM) | 3.12 µg/mL (≈ 9.44 µM) | 12.5 µg/mL (≈ 37.8 µM) | 12.5 µg/mL (≈ 37.8 µM) | 3.12 µg/mL (≈ 9.44 µM) | 12.5 µg/mL (≈ 37.8 µM)
CNc1ncnc(SC(=S)N(C)C)c1[N+](=O)[O-] [Subst. Nr. 7, 4-methylamino-6-dimethyldithiocarbamoyl-5-nitropyrimidine] | 1.56 µg/mL (≈ 5.71 µM) | 3.12 µg/mL (≈ 11.4 µM) | 12.5 µg/mL (≈ 45.7 µM) | 6.25 µg/mL (≈ 22.9 µM) | 3.12 µg/mL (≈ 11.4 µM) | 6.25 µg/mL (≈ 22.9 µM)
CCCOc1ncnc(SC(=S)N(C)C)c1[N+](=O)[O-] [Subst. Nr. 11, 4-propoxy-6-dimethyldithiocarbamoyl-5-nitropyrimidine] | 0.8 µg/mL (≈ 2.65 µM) | 0.8 µg/mL (≈ 2.65 µM) | 6.25 µg/mL (≈ 20.7 µM) | 1.56 µg/mL (≈ 5.16 µM) | 0.8 µg/mL (≈ 2.65 µM) | 1.56 µg/mL (≈ 5.16 µM)
CCOc1nc(C)nc(SC(=S)N2CCCC2)c1[N+](=O)[O-] [Subst. Nr. 10, 4-ethoxy-2-methyl-6-tetramethylenedithiocarbamoyl-5-nitropyrimidine] | 3.12 µg/mL (≈ 9.5 µM) | 0.8 µg/mL (≈ 2.44 µM) | 12.5 µg/mL (≈ 38.1 µM) | 25 µg/mL (≈ 76.1 µM) | 12.5 µg/mL (≈ 38.1 µM) | 50 µg/mL (≈ 152 µM)
NC(=O)c1cc([N+](=O)[O-])cc([N+](=O)[O-])c1SC(=S)N1CCCCCC1 [Subst. Nr. 16, 3,5-dinitro-2-hexamethylenedithiocarbamoylbenzamide] | 6.25 µg/mL (≈ 16.3 µM) | 12.5 µg/mL (≈ 32.5 µM) | 6.25 µg/mL (≈ 16.3 µM) | 6.25 µg/mL (≈ 16.3 µM) | 0.1 µg/mL (≈ 0.26 µM) | 0.8 µg/mL (≈ 2.08 µM)
CNc1ncnc(SC(=S)N2CCCC2)c1[N+](=O)[O-] [Subst. Nr. 12, 4-methylamino-6-tetramethylenedithiocarbamoyl-5-nitropyrimidine] |  |  | 3.12 µg/mL (≈ 10.4 µM) | 1.56 µg/mL (≈ 5.21 µM) | 0.8 µg/mL (≈ 2.67 µM) | 0.8 µg/mL (≈ 2.67 µM)
4-isopropylamino-6-diethyldithiocarbamoyl-5-nitropyrimidine [Subst. Nr. 1] | 3.12 µg/mL | 25 µg/mL | 12.5 µg/mL | 25 µg/mL | 3.12 µg/mL | 25 µg/mL
CCN(CC)C(=S)Sc1ncnc(NC)c1[N+](=O)[O-] [Subst. Nr. 4, 4-methylamino-6-diethyldithiocarbamoyl-5-nitropyrimidine] | 0.78 µg/mL (≈ 2.59 µM) | 1.56 µg/mL (≈ 5.18 µM) | 6.25 µg/mL (≈ 20.7 µM) | 6.24 µg/mL (≈ 20.7 µM) | 1.56 µg/mL (≈ 5.18 µM) | 6.25 µg/mL (≈ 20.7 µM)
O=[N+]([O-])c1cnc(SC(=S)N2CCCC2)c([N+](=O)[O-])c1 [Subst. Nr. 18, 3,5-dinitro-2-tetramethylenedithiocarbamoylpyridine] | 1.56 µg/mL (≈ 4.96 µM) | 12.5 µg/mL (≈ 39.8 µM) | 6.25 µg/mL (≈ 19.9 µM) | 3.12 µg/mL (≈ 9.93 µM) | 3.12 µg/mL (≈ 9.93 µM) | 3.12 µg/mL (≈ 9.93 µM)
CCN(CC)C(=S)Sc1c(C#N)cc([N+](=O)[O-])cc1[N+](=O)[O-] [Subst. Nr. 3, 3,5-dinitro-2-diethyldithiocarbamoylbenzonitril] | 3.12 µg/mL (≈ 9.17 µM) | 6.25 µg/mL (≈ 18.4 µM) | 12.5 µg/mL (≈ 36.7 µM) | 12.5 µg/mL (≈ 36.7 µM) | 3.12 µg/mL (≈ 9.17 µM) | 6.25 µg/mL (≈ 18.4 µM)
NC(=O)c1cc([N+](=O)[O-])cc([N+](=O)[O-])c1SC(=S)N1CCCC1 [Subst. Nr. 17, 3,5-dinitro-2-tetramethylenedithiocarbamoylbenzamide] | 25 µg/mL (≈ 70.1 µM) | 12.5 µg/mL (≈ 35.1 µM) | 50 µg/mL (≈ 140 µM) | 6.25 µg/mL (≈ 17.5 µM) | 0.4 µg/mL (≈ 1.12 µM) | 6.25 µg/mL (≈ 17.5 µM)
COc1ncnc(SC(=S)N(C)C)c1[N+](=O)[O-] [Subst. Nr. 14, 4-methoxy-6-dimethyldithiocarbamoyl-5-nitropyrimidine] | 6.25 µg/mL (≈ 22.8 µM) | 3.12 µg/mL (≈ 11.4 µM) | 3.12 µg/mL (≈ 11.4 µM) | 0.8 µg/mL (≈ 2.92 µM) | 3.12 µg/mL (≈ 11.4 µM) | 0.8 µg/mL (≈ 2.92 µM)
CN(C)C(=S)Sc1ncnc(N(C)C)c1[N+](=O)[O-] [Subst. Nr. 8, 4-dimethylamino-6-dimethyldithiocarbamoyl-5-nitropyrimidine] | 3.12 µg/mL (≈ 10.9 µM) | 6.52 µg/mL (≈ 22.7 µM) | 12.5 µg/mL (≈ 43.5 µM) | 6.25 µg/mL (≈ 21.7 µM) | 3.12 µg/mL (≈ 10.9 µM) | 12.5 µg/mL (≈ 43.5 µM)
CCN(CC)C(=S)Sc1ncnc(N(C)O)c1[N+](=O)[O-] [Subst. Nr. 5, 4-methylhydroxyamino-6-diethyldithiocarbamoyl-5-nitropyrimidine] | 1.56 µg/mL (≈ 4.91 µM) | 3.12 µg/mL (≈ 9.83 µM) | 6.25 µg/mL (≈ 19.7 µM) | 12.5 µg/mL (≈ 39.4 µM) | 3.12 µg/mL (≈ 9.83 µM) | 6.25 µg/mL (≈ 19.7 µM)
CCN(CC)C(=S)Sc1ncnc(NC2CC2)c1[N+](=O)[O-] [Subst. Nr. 2, 4-cyclopropylamino-6-diethyldithiocarbamoyl-5-nitropyrimidine] | 1.56 µg/mL (≈ 4.76 µM) | 3.12 µg/mL (≈ 9.53 µM) | 6.25 µg/mL (≈ 19.1 µM) | 12.5 µg/mL (≈ 38.2 µM) | 3.12 µg/mL (≈ 9.53 µM) | 6.25 µg/mL (≈ 19.1 µM)
CN(C)C(=S)Sc1c(C#N)cc([N+](=O)[O-])cc1[N+](=O)[O-] [Subst. Nr. 9, 3,5-dinitro-2-dimethyldithiocarbamoylbenzonitrile] | 0.4 µg/mL (≈ 1.28 µM) | 0.4 µg/mL (≈ 1.28 µM) | 3.12 µg/mL (≈ 9.99 µM) | 1.56 µg/mL (≈ 4.99 µM) | 3.12 µg/mL (≈ 9.99 µM) | 6.25 µg/mL (≈ 20 µM)
